Assay results as given in patent publication US12448389B2, “BRM targeting compounds and associated methods of use” (Prelude Therapeutics Incorporated, priority 2020, dated 2025).

Legend:
[1] = system: SMARCA4 mutated cancer cells; settings: SMARCA2/4 bromodomain inhibitor; Vangamudi et al. Cancer Res 2015; cited from earlier work
SMARCA2 = biological target: T1, SMARCA2 (Homo sapiens, UniProt P51531); experiment: SMARCA2 protein degradation in NCIH520 cells by In Cell Western (ICW); format: cell-based; settings: highest concentration 1 μM; for DC50: H520 cells, overnight incubation (maximum 18 hours), read-out: DC50 (SM2_H520): SMARCA2 degradation potency; for Dmax: NCI-H520, overnight incubation (maximum 18 hours), read-out: Dmax % (SM2_H520): maximum SMARCA2 degradation within the concentrations tested
T1 construct: endogenous in cells; host or cells: NCI-H520 (given as NCIH520 / NCIH1520 / H520)
Protocol: (§1) Compounds were dissolved in DMSO to make 10 mM stock and 3-fold series dilutions were further conducted keeping the highest concentration 10 μM. NCIH11693 and NCIH1520 cells were maintained in PRMI 1640 medium (Corning Cellgro, Catalog #: 10-040-CV) supplemented with 10% v/v FBS (GE Healthcare, Catalog #: SH30910.03) by splitting 1:3 twice a week.
(§2) SMACRA2 and SMARCA4 Protein Degradation DC50 Values in NCIH1693 and NCIH520 Cells by in Cell Western (ICW) Analysis.
(§3) Cells were trypsinized and 30 thousand cells/well were seeded into 384-well plates and were allowed to grow for 1-2 hours at 37° C. Eight-point, 3-fold serial dilutions of compounds from 0.5 mM stocks were added to the cells (using digital Dispenser D300-Tecan, keeping highest concentration 1 μM and normalizing with DMSO at the highest dispensed volume). Plates were incubated at 37° C. for overnight (maximum 18 hours). Cells incubated with DMSO was used as a vehicle control.
(§4) To perform In Cell Western, medium was removed from all the wells leaving cells attached to the surface. After removing the medium, cells were fixed within the plates with 40 μL of 4% formaldehyde by incubating at room temperature for 30 minutes, and then permeabilized with wash buffer (1×PBS with 0.1% Triton X-100) by washing the plate 5 times with 50 μL/well. Before labeling with primary antibodies, cells were blocked with 30 μL/well of blocking buffer (Licor Odyssey blocking buffer PBS #927-40000) for 30 minutes at room temperature. To measure SMARCA2 or SMARCA4 proteins, cells were labeled with 20 μL/well of anti SMARCA2 or SMACRA4 antibodies (Cell Signaling BRM #11966S 1:800, Cell Signaling BRG #49360S 1:800) diluted in Li-Cor Odyssey blocking buffer-PBS #927-40000, followed by overnight incubation at 4° C.
(§5) The next day, plates were washed 5×5 minutes with 50 μL/well of washing buffer to remove all the excess primary antibody and then 20 μL from a mixture of secondary antibody and fluorescent DNA specific dye (Goat anti rabbit 1:500 IRDye-800CW #92632211, and DRAQ5™ 1:2000-#ab108410) was added to each well. Plates were incubated for 1 hour at room temperature with gentle rocking. Cells were washed 5 times with 50 μL/well wash buffer, followed by one last wash with DI water, followed by 10 mins drying at 37° C. oven before scanning. Plates were scanned using Li-Cor Odyssey CLx imaging system to acquire integrated intensities at 700 nm and 800 nm. SMARCA signals were normalized to total cell count and then these normalized values were used to calculate the percent degradation relative to DMSO control and maximum inhibition. DC50s were calculated by using the GraphPad Prism4 program based on sigmoidal dose response equation ([Inhibitor] vs. normalized response-Variable slope).
(§6) In Table 36, the DC50/Dmax% (SM2_H520) refers to SMARCA2 degradation potency/maximum SMARCA2 degradation within the concentrations in H520 cells and DC50/Dmax% (SM4_H520) refers to SMARCA4 degradation potency/maximum SMARCA4 degradation within the concentrations tested in H520 cells.

SMARCA4 = biological target: T2, SMARCA4 (Homo sapiens, UniProt P51532); experiment: SMARCA4 protein degradation in NCIH520 cells by In Cell Western (ICW); format: cell-based; settings: highest concentration 1 μM; for DC50: H520 cells, overnight incubation (maximum 18 hours), read-out: DC50 (SM4_H520): SMARCA4 degradation potency; for Dmax: NCI-H520, overnight incubation (maximum 18 hours), read-out: Dmax % (SM4_H520): maximum SMARCA4 degradation within the concentrations tested
T2 construct: endogenous in cells; host or cells: NCI-H520 (given as NCIH520 / NCIH1520 / H520)
Protocol: as §1, §2, §3, §4, §5, §6

T1 sequence (P51531 whole entry): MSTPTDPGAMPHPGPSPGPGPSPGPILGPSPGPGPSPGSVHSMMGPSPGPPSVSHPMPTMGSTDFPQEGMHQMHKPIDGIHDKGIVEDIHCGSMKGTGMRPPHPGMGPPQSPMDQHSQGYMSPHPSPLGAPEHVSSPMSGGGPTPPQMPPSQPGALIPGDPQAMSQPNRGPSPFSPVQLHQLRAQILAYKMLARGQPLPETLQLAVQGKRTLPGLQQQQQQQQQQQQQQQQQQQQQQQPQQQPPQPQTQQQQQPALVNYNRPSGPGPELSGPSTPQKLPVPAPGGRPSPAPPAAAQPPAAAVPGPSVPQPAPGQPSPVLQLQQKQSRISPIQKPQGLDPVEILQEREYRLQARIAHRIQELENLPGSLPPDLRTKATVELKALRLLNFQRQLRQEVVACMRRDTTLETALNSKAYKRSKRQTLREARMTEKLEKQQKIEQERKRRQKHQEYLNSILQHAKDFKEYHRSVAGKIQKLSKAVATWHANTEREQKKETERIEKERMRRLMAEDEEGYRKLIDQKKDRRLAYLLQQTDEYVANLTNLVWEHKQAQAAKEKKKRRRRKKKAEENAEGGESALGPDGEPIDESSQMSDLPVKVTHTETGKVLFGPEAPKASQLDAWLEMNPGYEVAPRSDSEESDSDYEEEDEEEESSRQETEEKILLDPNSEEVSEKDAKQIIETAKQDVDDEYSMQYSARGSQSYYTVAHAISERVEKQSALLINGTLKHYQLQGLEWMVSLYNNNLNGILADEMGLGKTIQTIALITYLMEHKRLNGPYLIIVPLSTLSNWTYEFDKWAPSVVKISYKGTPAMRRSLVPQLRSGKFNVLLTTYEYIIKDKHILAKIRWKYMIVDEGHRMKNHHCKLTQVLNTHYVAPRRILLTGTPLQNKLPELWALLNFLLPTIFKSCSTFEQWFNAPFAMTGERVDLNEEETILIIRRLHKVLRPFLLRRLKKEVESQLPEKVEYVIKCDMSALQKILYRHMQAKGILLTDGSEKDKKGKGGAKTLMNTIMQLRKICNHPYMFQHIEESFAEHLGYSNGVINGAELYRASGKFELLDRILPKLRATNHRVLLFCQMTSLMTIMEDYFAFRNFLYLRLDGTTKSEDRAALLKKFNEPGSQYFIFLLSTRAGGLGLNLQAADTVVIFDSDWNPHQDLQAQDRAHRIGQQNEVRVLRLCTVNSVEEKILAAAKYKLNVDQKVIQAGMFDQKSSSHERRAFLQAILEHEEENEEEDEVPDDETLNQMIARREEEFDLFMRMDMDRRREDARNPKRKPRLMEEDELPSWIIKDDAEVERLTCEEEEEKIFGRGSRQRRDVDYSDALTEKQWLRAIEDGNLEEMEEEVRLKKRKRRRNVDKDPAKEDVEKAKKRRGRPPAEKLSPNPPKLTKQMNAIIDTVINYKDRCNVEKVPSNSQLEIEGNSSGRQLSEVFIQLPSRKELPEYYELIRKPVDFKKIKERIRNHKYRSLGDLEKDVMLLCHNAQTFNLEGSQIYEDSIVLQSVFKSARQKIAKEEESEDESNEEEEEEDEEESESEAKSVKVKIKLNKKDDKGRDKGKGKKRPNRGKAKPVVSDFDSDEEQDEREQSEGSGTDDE
T2 sequence (P51532 whole entry): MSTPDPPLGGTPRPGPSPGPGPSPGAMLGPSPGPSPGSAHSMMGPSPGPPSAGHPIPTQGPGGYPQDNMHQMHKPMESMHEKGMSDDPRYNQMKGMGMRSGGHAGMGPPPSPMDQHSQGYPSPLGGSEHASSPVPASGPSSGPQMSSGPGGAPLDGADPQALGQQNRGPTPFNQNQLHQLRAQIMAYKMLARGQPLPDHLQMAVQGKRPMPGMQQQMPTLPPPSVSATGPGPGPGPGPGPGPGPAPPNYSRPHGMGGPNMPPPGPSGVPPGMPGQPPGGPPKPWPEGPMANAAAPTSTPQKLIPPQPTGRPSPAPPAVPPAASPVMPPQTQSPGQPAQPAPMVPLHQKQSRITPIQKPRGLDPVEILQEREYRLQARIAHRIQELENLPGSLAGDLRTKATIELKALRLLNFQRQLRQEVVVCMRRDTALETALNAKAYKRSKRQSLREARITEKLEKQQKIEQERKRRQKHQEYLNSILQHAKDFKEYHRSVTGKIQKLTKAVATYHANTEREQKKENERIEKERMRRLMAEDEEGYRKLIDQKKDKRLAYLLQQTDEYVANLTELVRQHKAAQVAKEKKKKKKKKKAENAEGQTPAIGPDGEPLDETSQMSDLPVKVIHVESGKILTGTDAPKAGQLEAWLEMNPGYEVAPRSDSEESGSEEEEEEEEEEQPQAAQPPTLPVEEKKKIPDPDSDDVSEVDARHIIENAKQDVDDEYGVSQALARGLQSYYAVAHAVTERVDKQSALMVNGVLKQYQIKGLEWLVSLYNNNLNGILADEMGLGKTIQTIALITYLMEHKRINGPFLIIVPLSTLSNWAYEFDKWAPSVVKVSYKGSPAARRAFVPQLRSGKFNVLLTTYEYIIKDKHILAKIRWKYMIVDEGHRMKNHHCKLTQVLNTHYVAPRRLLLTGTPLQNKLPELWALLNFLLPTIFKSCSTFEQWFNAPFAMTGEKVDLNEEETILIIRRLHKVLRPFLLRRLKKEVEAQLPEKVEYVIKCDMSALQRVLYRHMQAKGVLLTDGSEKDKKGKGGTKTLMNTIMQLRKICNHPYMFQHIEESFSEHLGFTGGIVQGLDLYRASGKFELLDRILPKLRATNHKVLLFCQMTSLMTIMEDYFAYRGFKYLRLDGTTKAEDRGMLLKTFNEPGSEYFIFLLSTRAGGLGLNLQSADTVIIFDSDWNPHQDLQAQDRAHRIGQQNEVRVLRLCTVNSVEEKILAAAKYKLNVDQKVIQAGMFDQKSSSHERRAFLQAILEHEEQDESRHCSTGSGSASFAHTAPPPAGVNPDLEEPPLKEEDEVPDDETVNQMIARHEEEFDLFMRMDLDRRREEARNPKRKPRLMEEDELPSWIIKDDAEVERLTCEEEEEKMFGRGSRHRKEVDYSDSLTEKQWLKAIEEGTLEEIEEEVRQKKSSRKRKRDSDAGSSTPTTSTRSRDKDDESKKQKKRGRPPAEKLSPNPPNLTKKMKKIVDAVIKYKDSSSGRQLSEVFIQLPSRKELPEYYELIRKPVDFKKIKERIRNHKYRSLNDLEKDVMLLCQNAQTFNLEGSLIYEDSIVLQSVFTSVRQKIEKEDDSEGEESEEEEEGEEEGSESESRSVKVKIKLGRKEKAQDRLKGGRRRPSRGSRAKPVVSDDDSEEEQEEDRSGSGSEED

DC50 (SMARCA2) [nM]	Dmax (SMARCA2) [%]	DC50 (SMARCA4) [nM]	Dmax (SMARCA4) [%]	SMILES	effects on cell proliferation inhibition [1]
–	–	–	–	O=C(/C=C/N1C[C@H]2C[C@@H]1CN2c1ccccn1)c1ccccc1O [PFI-3]	none to minor effects
< 100	> 75	< 100	> 75	O=C1CCC(n2c3ccc(CCCN4CCC(c5cnc(N6CCN7c8cc(-c9ccccc9O)nnc8NC[C@@H]7C6)nc5)CC4)cc3c3cccnc32)C(=O)N1 (stereo partly drawn) [Example 18, 3-(6-(3-(4-(2-((R)-2-(2-hydroxyphenyl)-5,6,6a,7,9,10-hexahydro-8H-pyrazino [1′,2′:4,5]pyrazino[2,3-c]pyridazin-8-yl)pyrimidin-5-yl)piperidin-1-yl)propyl)-9H-pyrido [2,3-b]indol-9-yl)piperidine-2,6-dione]	–
< 100	> 75	< 100	50 to 75	O=C1CCC(N2Cc3cc(CN4CCC(OCCN5CCC(N6CCN7c8cc(-c9ccccc9O)nnc8NC[C@H]7C6)CC5)CC4)ccc3C2=O)C(=O)N1 (stereo partly drawn) [Example 9, 3-(5-((4-(2-(4-((S)-2-(2-hydroxyphenyl)-5,6,6a,7,9,10-hexahydro-8H-pyrazino[1′,2′:4,5]pyrazino[2,3-c]pyridazin-8-yl)piperidin-1-yl)ethoxy)piperidin-1-yl)methyl)-1-oxoisoindolin-2-yl)piperidine-2,6-dione]	–
< 100	> 75	< 100	> 75	O=C1CCC(N2Cc3cc(CCN4CCC(c5cnc(N6CCN7c8cc(-c9ccccc9O)nnc8NC[C@@H]7C6)nc5)CC4)ccc3C2=O)C(=O)N1 (stereo partly drawn) [Example 4, 3-(5-(2-(4-(2-((R)-2-(2-hydroxyphenyl)-5,6,6a,7,9,10-hexahydro-8H-pyrazino[1′,2′:4,5]pyrazino[2,3-c]pyridazin-8-yl)pyrimidin-5-yl)piperidin-1-yl)ethyl)-1-oxoisoindolin-2-yl)piperidine-2,6-dione]	–
< 100	> 75	< 100	> 75	O=C1CCC(N2Cc3cc(CCN4CCC(c5cnc(N6CCN7c8cc(-c9ccccc9O)nnc8NC[C@H]7C6)nc5)CC4)ccc3C2=O)C(=O)N1 (stereo partly drawn) [Example 1, 3-(5-(2-(4-(2-((S)-2-(2-hydroxyphenyl)-5,6,6a,7,9,10-hexahydro-8H-pyrazino [1′,2′:4,5]pyrazino[2,3-c]pyridazin-8-yl)pyrimidin-5-yl)piperidin-1-yl)ethyl)-1-oxoiso-indolin-2-yl)piperidine-2,6-dione]	–
< 100	> 75	< 100	50 to 75	O=C1CCC(N2C(=O)c3ccc(N4CCN(CCN5CCC(N6CCN7c8cc(-c9ccccc9O)nnc8NC[C@H]7C6)C5)CC4)cc3C2=O)C(=O)N1 (stereo partly drawn) [Example 12, 2-(2,6-Dioxopiperidin-3-yl)-5-(4-(2-(3-((S)-2-(2-hydroxyphenyl)-5,6,6a,7,9,10-hexahydro-8H-pyrazino[1′,2′:4,5]pyrazino[2,3-c]pyridazin-8-yl)pyrrolidin-1-yl)ethyl)piperazin-1-yl) isoindoline-1,3-dione]	–
< 100	> 75	< 100	> 75	O=C1CCC(N2C(=O)c3ccc(N4CCC(N5CCC(N6CCN7c8cc(-c9ccccc9O)nnc8NC[C@H]7C6)CC5)C4)cc3C2=O)C(=O)N1 (stereo partly drawn) [Example 13, 2-(2,6-Dioxopiperidin-3-yl)-5-(3-(4-((S)-2-(2-hydroxyphenyl)-5,6,6a,7,9,10-hexahydro-8H-pyrazino[1′,2′:4,5]pyrazino[2,3-c]pyridazin-8-yl)piperidin-1-yl)pyrrolidin-1-yl) isoindoline-1,3-dione]	–
< 100	> 75	< 100	> 75	O=C1CCC(N2Cc3ccc(N4CCN(CCN5CCC(N6CCN7c8cc(-c9ccccc9O)nnc8NC[C@H]7C6)CC5)CC4)cc3C2=O)C(=O)N1 (stereo partly drawn) [Example 17, 3-(6-(4-(2-(4-((S)-2-(2-hydroxyphenyl)-5,6,6a,7,9,10-hexahydro-8H-pyrazino [1′,2′:4,5]pyrazino[2,3-c]pyridazin-8-yl)piperidin-1-yl)ethyl)piperazin-1-yl)-1-oxoisoindolin-2-yl)piperidine-2,6-dione]	–
< 100	> 75	< 100	50 to 75	O=C1CCC(N2Cc3cc(CN4CCC(c5cnc(N6CCN7c8cc(-c9ccccc9O)nnc8NC[C@H]7C6)nc5)CC4)ccc3C2=O)C(=O)N1 (stereo partly drawn) [Example 10, 3-(5-((4-(2-((S)-2-(2-hydroxyphenyl)-5,6,6a,7,9,10-hexahydro-8H-pyrazino[1′,2′:4,5]pyrazino[2,3-c]pyridazin-8-yl)pyrimidin-5-yl)piperidin-1-yl)methyl)-1-oxoisoindolin-2-yl)piperidine-2,6-dione]	–
< 100	> 75	< 100	> 75	O=C1CCC(N2C(=O)c3ccc(N4CCC(N5CCC(N6CCN7c8cc(-c9ccccc9O)nnc8NC[C@H]7C6)CC5)CC4)cc3C2=O)C(=O)N1 (stereo partly drawn) [Example 14, 2-(2,6-dioxopiperidin-3-yl)-5-(4-((S)-2-(2-hydroxyphenyl)-5,6,6a,7,9,10-hexahydro-8H-pyrazino[1′,2′:4,5]pyrazino[2,3-c]pyridazin-8-yl)-[1,4′-bipiperidin]-1′-yl) isoindoline-1,3-dione]	–
< 100	> 75	< 100	> 75	O=C1CCC(N2Cc3cc(CCCN4CCC(CCc5cnc(N6CCN7c8cc(-c9ccccc9O)nnc8NC[C@@H]7C6)nc5)CC4)ccc3C2=O)C(=O)N1 (stereo partly drawn) [Example 3, 3-(5-(3-(4-(2-(2-((R)-2-(2-hydroxyphenyl)-5,6,6a,7,9,10-hexahydro-8H-pyrazino[1′,2′:4,5]pyrazino[2,3-c]pyridazin-8-yl)pyrimidin-5-yl)ethyl)piperidin-1-yl)propyl)-1-oxoisoindolin-2-yl)piperidine-2,6-dione]	–
